From US10246401B2, “Crystalline form of chlorogenic acid and preparation method thereof” (SICHUAN JIUZHANG BIOLOGICAL SCIENCE AND TECHNOLOGY CO., LTD., priority 2014, dated 2019) come the findings set out here.

Data set [1] can be described thus: Long-term stability test of chlorogenic acid crystal form. The data set is classed as physicochemical.
Data set [2] in a line: Residual solvent by gas chromatography (internal standard method). Type of data set: physicochemical. To be noted: Chinese Pharmacopoeia limit 0.5%. The procedure: […]; an appropriate amount of ethyl acetate was taken, weighed precisely, and N,N-dimethylformamide was added to prepare the solution containing 5 mg of ethyl acetate per 1 ml. 1 ml of the solution was accurately pipetted into a 10 ml volumetric flask, and 1 ml of the internal standard solution was precisely added, and diluted by adding N,N-dimethylformamide to the volume, and agitated to obtain the reference solution; 0.5 g of the chlorogenic acid crystal form prepared by Examples 1 and 2, and about 0.5 g of respective raw materials of each example, were taken and weighed precisely, then transferred to a 10 ml volumetric flask. 1 ml of the internal standard solution was added precisely, diluted with N,N-dimethylformamide to volume, and agitated, to obtain the testing solution. According to the gas chromatography method (the appendix V E of the second part of the Chinese Pharmacopoeia 2010), 30 m capillary column was used with 50% polyphenyl methylsiloxane as the stationary liquid, and its coating thickness was 1 μm. The column temperature was kept at 80° C. taking 1 μl of the reference solution and 1 μl of the testing solution were accurately taken, respectively, and injected into the gas chromatograph, to record the chromatogram. Calculating with the height ratio of peaks in accordance with internal standard method, the results are as follows: […]

[3] abbreviates: 0-48 months, 18±2° C., relative humidity 60±10%.
[4] abbreviates: 0 month, 18±2° C., relative humidity 60±10%.
The mark [5] stands for this setting: 3 months, 18±2° C., relative humidity 60±10%.
[6] abbreviates: 6 months, 18±2° C., relative humidity 60±10%.
Setting [7] is: 9 months, 18±2° C., relative humidity 60±10%.
The mark [8] stands for this setting: 12 months, 18±2° C., relative humidity 60±10%.
Where [9] appears, read: 18 months, 18±2° C., relative humidity 60±10%.
The mark [10] stands for this setting: 24 months, 18±2° C., relative humidity 60±10%.
[11] abbreviates: 36 months, 18±2° C., relative humidity 60±10%.
Setting [12] is: 48 months, 18±2° C., relative humidity 60±10%.

Where “and” joins values, the source holds several entries; their conditions need not be identical. Equal entries are not always repeated.

For the compound `O=C(/C=C/c1ccc(O)c(O)c1)O[C@@H]1C[C@](O)(C(=O)O)C[C@@H](O)[C@H]1O` [Example 1, 3-O-caffeoylquinnic acid], in data set [1] (setting [3]), the “Content of chlorogenic acid over the long-term stability test” value is “above 98%”. Besides, the “Stability (overall conclusion of long-term test)” value in data set [1] (setting [3]) is recorded as “good stability”. The Appearance result in data set [1] (setting [4]), in data set [1] (setting [5]), in data set [1] (setting [6]), in data set [1] (setting [7]), in data set [1] (setting [8]) and in data set [1] (setting [9]) was “almost white” throughout. Also, the Appearance result in data set [1] (setting [10]), in data set [1] (setting [11]) and in data set [1] (setting [12]) was “almost white” throughout. For the same compound, the “Content (%)” value in data set [1] (setting [4]) is 99.50% and 99.56% and 99.49%; in data set [1] (setting [5]) it was 99.47% and 99.41% and 99.43%; in data set [1] (setting [6]), 99.44% and 99.38% and 99.42%; in data set [1] (setting [7]) it was 99.38% and 99.30% and 99.33%; in data set [1] (setting [8]) it was 99.32% and 99.27% and 99.23%; in data set [1] (setting [9]), 99.18% and 99.26% and 99.24%. For the same compound, the “Content (%)” value in data set [1] (setting [10]) is 99.17% and 99.10% and 99.14%; in data set [1] (setting [11]) it was 99.13% and 99.05% and 99.02%; in data set [1] (setting [12]), 98.85% and 98.74% and 98.80%. Further, the “Loss on drying (%)” value in data set [1] (setting [4]) was 2.32% and 2.31% and 2.29%; in data set [1] (setting [5]), 2.30% and 2.31% and 2.29%; in data set [1] (setting [6]), 2.31% and 2.29% and 2.28%; in data set [1] (setting [7]), 2.32% and 2.31%; in data set [1] (setting [8]) it was 2.28% and 2.31% and 2.29%; in data set [1] (setting [9]), 2.30% and 2.29% and 2.28%. The “Loss on drying (%)” value in data set [1] (setting [10]) was 2.32% and 2.30% and 2.31%; in data set [1] (setting [11]), 2.32% and 2.31%; in data set [1] (setting [12]), 2.34% and 2.38% and 2.36%. Moreover, the “Related substances (%) Other 2” value in data set [1] (setting [4]) was 0.140% and 0.137% and 0.144%; in data set [1] (setting [5]), 0.142% and 0.151% and 0.148%; in data set [1] (setting [6]) it was 0.146% and 0.154% and 0.155%; in data set [1] (setting [7]), 0.162% and 0.167% and 0.165%; in data set [1] (setting [8]), 0.163% and 0.168% and 0.169%; in data set [1] (setting [9]) it was 0.179% and 0.174%. The “Related substances (%) Other 2” value is 0.178% and 0.187% and 0.185% in data set [1] (setting [10]); 0.190% and 0.194% and 0.196% in data set [1] (setting [11]); 0.219% and 0.222% and 0.218% in data set [1] (setting [12]). Besides, the “Related substances (%) Other 3” value in data set [1] (setting [4]) was 0.205% and 0.214% and 0.218%; in data set [1] (setting [5]) it was 0.230% and 0.237% and 0.228%; in data set [1] (setting [6]), 0.234% and 0.240% and 0.231%; in data set [1] (setting [7]), 0.255% and 0.261% and 0.252%; in data set [1] (setting [8]), 0.260% and 0.264% and 0.265%; in data set [1] (setting [9]) it was 0.279% and 0.270% and 0.272%. Besides, the “Related substances (%) Other 3” value in data set [1] (setting [10]) is 0.278% and 0.292% and 0.286%; in data set [1] (setting [11]) it was 0.299% and 0.301% and 0.302%; in data set [1] (setting [12]) it was 0.303% and 0.309% and 0.306%. In addition, the “Related substances (%) Other 4” value in data set [1] (setting [4]) was 0.045% and 0.049% and 0.048%; in data set [1] (setting [5]) it was 0.049% and 0.050% and 0.046%; in data set [1] (setting [6]), 0.054% and 0.056% and 0.053%; in data set [1] (setting [7]) it was 0.058% and 0.061% and 0.060%; in data set [1] (setting [8]), 0.062% and 0.063%; in data set [1] (setting [9]) it was 0.065% and 0.067%. Further, the “Related substances (%) Other 4” value in data set [1] (setting [10]) is 0.070% and 0.074% and 0.072%; in data set [1] (setting [11]) it was 0.076% and 0.074% and 0.078%; in data set [1] (setting [12]) it was 0.092% and 0.095% and 0.091%. For the same compound, the “Related substances In total (%)” value was 0.488% and 0.499% and 0.511% in data set [1] (setting [4]); 0.523% and 0.543% and 0.525% in data set [1] (setting [5]); 0.541% and 0.563% and 0.548% in data set [1] (setting [6]); 0.591% and 0.611% and 0.595% in data set [1] (setting [7]); 0.606% and 0.623% and 0.627% in data set [1] (setting [8]); 0.660% and 0.643% and 0.647% in data set [1] (setting [9]). Further, the “Related substances In total (%)” value is 0.666% and 0.697% and 0.685% in data set [1] (setting [10]); 0.713% and 0.719% and 0.732% in data set [1] (setting [11]); 0.770% and 0.787% and 0.772% in data set [1] (setting [12]). For the same compound, in data set [1] (at the end of 12, 24, 36 and 48 months, 18±2° C., relative humidity 60±10%), the “Crystal form examination by microscope” value is given as “single lamellar crystal”. Further, the Stability on storage result in data set [1] (within 48 months, stored in the cool and dark place) is reported as “does not change obviously”. Further, the “Residual solvent Ethyl acetate (%)” value in data set [2] (listed as Sample obtained in Example 1) is recorded as 0.254%.

For the compound `O=C(/C=C/c1ccc(O)c(O)c1)O[C@@H]1C[C@](O)(C(=O)O)C[C@@H](O)[C@H]1O` [Raw material of Example 1, 3-O-caffeoylquinnic acid], in data set [2], the “Residual solvent Ethyl acetate (%)” value came to 1.764%.

For `O=C(/C=C/c1ccc(O)c(O)c1)O[C@@H]1C[C@](O)(C(=O)O)C[C@@H](O)[C@H]1O` [Raw material of Example 2, 3-O-caffeoylquinnic acid], in data set [2], the “Residual solvent Ethyl acetate (%)” value is recorded as 2.314%.

On to `O=C(/C=C/c1ccc(O)c(O)c1)O[C@@H]1C[C@](O)(C(=O)O)C[C@@H](O)[C@H]1O` [Sample obtained in Example 2, 3-O-caffeoylquinnic acid], for which the “Residual solvent Ethyl acetate (%)” value in data set [2] is on record as 0.252%.
